Patent US9006487B2, “Amine-containing lipids and uses thereof” (Massachusetts Institute of Technology, priority 2005, dated 2015)

System: cos-7 cells
Assay: DNA transfection: luciferase expression relative to Lipofectamine 2000
Format: cell-based
Settings: 300 ng Luciferase DNA per well, luciferase assay after 48 hours
Protocol: 14,000 cos-7 cells (ATCC, Manassas, Va.) were seeded into each well of a solid white or clear 96 well plate (Corning-Costar, Kennebunk, Me.) and allowed to attached overnight in growth medium, composed of: 500 ml phenol red minus DMEM, 50 ml heat inactivated FBS, 5 ml penicillin/streptomycin (Invitrogen, Carlsbad, Calif.).
A small liquot of lipid was tranferred to an Eppendorf tube. Based on the mass of the lipid in the tube, sterile 25 mM sodium acetate buffer was added to each tube to yield a concentration of 60 mg/ml. The resulting mixture was vortexed for approximately 20 minutes until the lipid was fully dissolved. DNA was prepared based on 300 ng DNA per well of a 96-well plate. 291 μg of Lc DNA was dissolved in 9210 μl of 25 mM sodium acetate buffer. Aliquots of 30 μl of DNA solution were added to each well expect for the last column which was reserved for the Lipo2000 standard. For the last column of the plate, 61 μg of DNA was added to 1940 μl Optimem. 150 μl of media/Optimem was added to each well of plates. 50 μl of lipid solution was aliquoted into wells of robot plate. The following amounts were aliquoted to obtain the correct ratios of DNA to lipid:
In quadruplicate, 30 μl of lipid was aliquoted onto DNA in four rows for each ratio. For the Lipo2000 control (2.5 w/w ratio to DNA), 152.5 μg of Lipo sample was aliquoted into 1847.5 μl of Optimem. 30 μl of this solution was aliquoted onto DNA in the Optimem in the last columns of each plate. The plates were incubated for 15-20 minutes, and then 36.5 μl of lipid+DNA complexes was transferred into 150 μl of media/Optimem, then add to cells. The media was aspirated off the cells, and 105 μl of the lipid/DNA/media/Optimem solution was added to the cells. The luciferase assay was performed after 48 hours.
Luminescence was analyzed using bright-glo assay kits (Promega). Briefly, 100 μl of bright-glo solution was added to each well of the microtiter plate containing media and cells. Luminescence was measured using a Mithras Luminometer (Berthold, Oak Ridge, Tenn.). In some cases, a neutral density filter (Chroma, Brattleboro, Vt.) was used to prevent saturation of the luminometer. A standard curve for Luciferase was generated by titration of Luciferase enzyme (Promega) into growth media in white microtiter plates. Luciferase in ng per well are calculated for each of the lipids at 2.5 w/w, 5 w/w, 10 w/w, 15 w/w, 20 w/w, and 25 w/w lipid to DNA based on the standard curve.
The table below summarizes the data as a % of the luciferase activity obtained from the use of Lipofectamine 2000. The table indicates the best lipids for transfection.

Compound | Luciferase expression as a percentage of that achieved using Lipofectamine 2000 (lipid/DNA 2.5 w/w) | Luciferase expression as a percentage of that achieved using Lipofectamine 2000 (lipid/DNA 5 w/w) | Luciferase expression as a percentage of that achieved using Lipofectamine 2000 (lipid/DNA 10 w/w) | Luciferase expression as a percentage of that achieved using Lipofectamine 2000 (lipid/DNA 15 w/w) | Luciferase expression as a percentage of that achieved using Lipofectamine 2000 (lipid/DNA 20 w/w) | Luciferase expression as a percentage of that achieved using Lipofectamine 2000 (lipid/DNA 25 w/w)
CCCCCCCCCCOC(=O)CCN(CCCOC)CCC(=O)OCCCCCCCCCC [LB1] | 0.1% | 0.1% | 0.1% | 0.1% | 0.1% | 0.2%
CCCCCCCCCCOC(=O)CCN(CCC(=O)OCCCCCCCCCC)CCC1OCCO1 [LB6] | 0.1% | 0.1% | 0.1% | 0.1% | 0.1% | 0.1%
CCCCCCCCCCOC(=O)CCN(CCC(=O)OCCCCCCCCCC)CC1COC(C)(C)O1 (stereo not drawn) [LB7] | 0.1% | 0.1% | 0.1% | 0.1% | 0.1% | 0.2%
CCCCCCCCCCOC(=O)CCN(CCOC)CCC(=O)OCCCCCCCCCC [LB10] | 0.1% | 0.1% | 0.1% | 0.1% | 0.1% | 0.1%
CCCCCCCCCCOC(=O)CCN(CCOCC)CCC(=O)OCCCCCCCCCC [LB11] | 0.1% | 0.1% | 0.1% | 0.1% | 0.1% | 0.1%
CCCCCCCCCCOC(=O)CCN(CCC(=O)OCCCCCCCCCC)CC(OC)OC [LB13] | 0.1% | 0.1% | 0.1% | 0.1% | 0.1% | 0.1%
CCCCCCCCCCOC(=O)CCN(CCC(=O)OCCCCCCCCCC)CC1CCCO1 (stereo not drawn) [LB15] | 0.1% | 0.1% | 0.1% | 0.1% | 0.1% | 0.1%
CCCCCCCCCCOC(=O)CCN(CCC(=O)OCCCCCCCCCC)CCc1ccc(OC)c(OC)c1 [LB17] | 0.1% | 0.1% | 0.1% | 0.1% | 0.1% | 0.1%
CCCCCCCCCCOC(=O)CCN(CCCO)CCC(=O)OCCCCCCCCCC [LB20] | 0.1% | 0.1% | 0.4% | 0.2% | 0.3% | 0.7%
